Results reported in ChEMBL document CHEMBL1134824, “Beta-D-glycosylamidines: potent, selective, and easily accessible 1-glycosidase inhibitors” (Bioorg Med Chem Lett, 2001).

Assays:
[1] = Compound was evaluated for the basicity, pKa of the conjugate acids; assay type: physicochemical
[2] = Compound was evaluated for the selective and competitive inhibition of Beta-glucosidase from Aspergillus niger
[3] = Compound was evaluated for the selective and competitive inhibition of Beta-xylosidase from Aspergillus pulverulentus at 2.5 mM; NI = No inhibition
[4] = Compound was evaluated for the selective and competitive inhibition of Beta-galactosidase from Aspergillus oryzae at 2.5 mM; NI = No inhibition
[5] = Compound was evaluated for the selective and competitive inhibition of Alpha-glucosidase from Yeast; set-up: species or system Saccharomyces cerevisiae
[6] = Compound was evaluated for the selective and competitive inhibition of Beta-galactosidase from Escherichia coli at 2.5 mM; NI = No inhibition
[7] = Compound was evaluated for the selective and competitive inhibition of Alpha-glucosidase from Aspergillus niger at 2.5 mM; NI = No inhibition
[8] = Compound was evaluated for the selective and competitive inhibition of Alpha-glucosidase from Aspergillus niger
[9] = Compound was evaluated for the selective and competitive inhibition of Beta-glucosidase from Trichoderma viride
[10] = Compound was evaluated for the selective and competitive inhibition of Alpha-glucosidase from Bacillus sp.
[11] = Compound was evaluated for the selective and competitive inhibition of Beta-glucosidase from Almond; set-up: species or system Prunus dulcis
[12] = Compound was evaluated for the selective and competitive inhibition of Beta-galactosidase from Aspergillus oryzae
[13] = molecular target: T1, Exo-1,4-beta-xylosidase xlnD (Aspergillus niger, UniProt O00089); test: Compound was evaluated for the selective and competitive inhibition of Beta-xylosidase from Aspergillus pulverulentus
T1 sequence (O00089 whole entry): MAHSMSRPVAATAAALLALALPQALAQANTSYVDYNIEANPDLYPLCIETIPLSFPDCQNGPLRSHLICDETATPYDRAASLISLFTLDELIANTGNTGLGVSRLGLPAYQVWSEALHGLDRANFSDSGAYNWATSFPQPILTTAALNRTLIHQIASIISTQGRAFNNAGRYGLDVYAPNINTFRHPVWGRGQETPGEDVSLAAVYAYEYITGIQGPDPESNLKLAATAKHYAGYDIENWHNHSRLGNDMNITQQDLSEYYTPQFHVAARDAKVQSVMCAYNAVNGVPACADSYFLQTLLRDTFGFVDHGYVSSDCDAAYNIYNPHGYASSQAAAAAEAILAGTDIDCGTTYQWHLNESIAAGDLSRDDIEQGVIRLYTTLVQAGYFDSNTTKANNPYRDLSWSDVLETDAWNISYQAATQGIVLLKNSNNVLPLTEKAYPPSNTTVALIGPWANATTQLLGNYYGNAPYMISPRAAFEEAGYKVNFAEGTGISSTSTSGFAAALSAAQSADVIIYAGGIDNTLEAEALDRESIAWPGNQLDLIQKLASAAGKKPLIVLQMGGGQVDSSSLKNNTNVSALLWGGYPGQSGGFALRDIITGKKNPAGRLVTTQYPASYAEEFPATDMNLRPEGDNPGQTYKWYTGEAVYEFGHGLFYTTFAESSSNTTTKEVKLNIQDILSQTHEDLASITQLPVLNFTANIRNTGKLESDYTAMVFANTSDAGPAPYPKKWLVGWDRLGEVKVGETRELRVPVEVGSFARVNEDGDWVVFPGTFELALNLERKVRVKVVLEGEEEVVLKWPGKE

[14] = Compound was evaluated for the selective and competitive inhibition of Beta-galactosidase from Escherichia coli
[15] = Compound was evaluated for the selective and competitive inhibition of Alpha-glucosidase from Bacillus sp. at 2.5 mM; NI = No inhibition
[16] = Compound was evaluated for the selective and competitive inhibition of Alpha-glucosidase from Yeast at 2.5 mM; NI = No inhibition; set-up: species or system Saccharomyces cerevisiae
[17] = molecular target: T1, Exo-1,4-beta-xylosidase xlnD; test: Compound was evaluated for the selective and competitive inhibition of beta-xylosidase from A. pulverulentus; NI = No inhibition at 2.5 mM; set-up: species or system Aspergillus pulverulentus
[18] = Compound was evaluated for the selective and competitive inhibition of Beta-glucosidase from Almond at 2.5 mM; NI = No inhibition; set-up: species or system Prunus dulcis
[19] = Compound was evaluated for the selective and competitive inhibition of Alpha-glucosidase from Yeast at 2.5 mM; set-up: species or system Saccharomyces cerevisiae
[20] = Compound was evaluated for the selective and competitive inhibition of Beta-galactosidase from Aspergillus pulverulentus
[21] = Compound was evaluated for the selective and competitive inhibition of beta-glucosidase from Aspergillus niger

| Compound | pKa [1] | Ki [2] [µM] | Ki [4] | Ki [5] [µM] | Ki [6] | Ki [7] | Ki [8] [µM] | Ki [9] [µM] | Ki [11] [µM] | Ki [14] [µM] | Ki [15] | also measured |
| --- | --- | --- | --- | --- | --- | --- | --- | --- | --- | --- | --- | --- |
| NC1OC(CO)C(O)C(O)C1O (centres undefined) | 5.6 |  |  |  |  |  |  |  |  |  |  |  |
| Br.N=C(Cc1ccccc1)NC1OC(CO)C(O)C(O)C1O (stereo in doubt; 1a) |  | 0.094 | Not Active | 21 | Not Active | Not Active | > 2500 | 0.13 | 73 |  |  | Ki [3]: Not Active; Ki [10]: > 2500 µM |
| Br.N=C(Cc1ccccc1)NC1OC(CO)C(O)C(O)C1O (stereo in doubt; 1b) |  | 390 |  |  |  |  | 47 | 390 | 41 | 7.8 | Not Active | Ki [12]: 2.4 µM; Ki [13]: 1000 µM; Ki [16]: Not Active |
| O=C(Cc1ccccc1)NC1OC(CO)C(O)C(O)C1O (centres undefined) |  | 770 | Not Active | > 2500 |  |  | > 2500 | 770 |  | > 2000 | Not Active | Ki [17]: No inhibition; Ki [18]: Not Active |
| Br.N=C(Cc1ccccc1)NC1OCC(O)C(O)C1O (centres undefined) |  |  | Not Active |  | Not Active | Not Active |  | 13 | 1100 |  | Not Active | Ki [19]: No inhibition; Ki [20]: 2.5 µM; Ki [21]: 11 µM |
| NC1OCC(O)C(O)C1O (centres undefined) | 5.6 |  |  |  |  |  |  |  |  |  |  |  |
